Results taken from patent US10172796B2, “Use of umirolimus and its derivatives for treating cancer” (Manli International Ltd., priority 2012, dated 2019).

Experiments:
[1] = system: K562/chronic myelogenous leukemia; assay: CellTiter-Glo luminescent cell viability assay, K562; assay type: cell-based, human; settings: 72 hours of in vitro culture
Protocol: (§1) Umirolimus was added to cultured cell lines derived from 9 types of human cancer. After 72 hours of in vitro culture, the 50% inhibitory concentration (IC50) of umirolimus on cell growth was measured using the CellTiter-Glo luminescent cell viability assay.

SK-HEP-1/liver = assay: CellTiter-Glo luminescent cell viability assay, SK-HEP-1; assay type: cell-based, human; settings: 72 hours of in vitro culture
Protocol: as §1

SK-MES-1/lung = assay: CellTiter-Glo luminescent cell viability assay, SK-MES-1; assay type: cell-based, human; settings: 72 hours of in vitro culture
Protocol: as §1

[2] = system: 10 human cancer cell lines; assay: Inhibition of cancer cell growth by umirolimus as compared to sirolimus and everolimus; assay type: cell-based; settings: 8 out of the 10 cancer cell lines tested: A2780, SK-HEP-1, DLD-1, SNU-16, BxPC-3, 786-O, SK-MES-1, AZ-521; FIG. 1
Protocol: as §1
The IC50 for 3 “limus” drugs for inhibiting the growth of 10 human cancer cell is lines was measured using the CellTiter-Glo luminescent cell viability assay as described in Example 1. The ten exemplary human cancer cell lines tested were SK-MES-1 (lung cancer), BxPC-3 (pancreatic cancer), AZ-521 (gastric cancer), SNU-16 (gastric cancer), SK-HEP-1 (liver cancer), A2780 (ovarian cancer), MDA-MB-231 (breast cancer), DLD-1 (colorectal cancer), DU-145 (prostate cancer) and 786-O (kidney cancer).

SW620/colorectal = assay: CellTiter-Glo luminescent cell viability assay, SW620; assay type: cell-based, human; settings: 72 hours of in vitro culture
Protocol: as §1

MDA-MB-231/breast = assay: CellTiter-Glo luminescent cell viability assay, MDA-MB-231; assay type: cell-based, human; settings: 72 hours of in vitro culture
Protocol: as §1

[3] = system: RPMI-8226/multiple myeloma; assay: CellTiter-Glo luminescent cell viability assay, RPMI-8226; assay type: cell-based, human; settings: 72 hours of in vitro culture
Protocol: as §1

[4] = See J. Med. Chem. 2000, 43:2922-2928; cited from earlier work
SNU-16/gastric = assay: CellTiter-Glo luminescent cell viability assay, SNU-16; assay type: cell-based, human; settings: 72 hours of in vitro culture
Protocol: as §1

AZ-521/gastric = assay: CellTiter-Glo luminescent cell viability assay, AZ-521; assay type: cell-based, human; settings: 72 hours of in vitro culture
Protocol: as §1

A2780/ovarian = assay: CellTiter-Glo luminescent cell viability assay, A2780; assay type: cell-based, human; settings: 72 hours of in vitro culture
Protocol: as §1

NCI-H460/lung = assay: CellTiter-Glo luminescent cell viability assay, NCI-H460; assay type: cell-based, human; settings: 72 hours of in vitro culture
Protocol: as §1

BxPC-3/pancreatic = assay: CellTiter-Glo luminescent cell viability assay, BxPC-3; assay type: cell-based, human; settings: 72 hours of in vitro culture
Protocol: as §1

[5] = system: 11 cell lines from 9 types of human cancers; assay: CellTiter-Glo cell viability assay, summary over the cell line panel; assay type: cell-based; settings: summary for all 11 cell lines of Table 1
Protocol: as §1

Molecule `CCOCCO[C@@H]1CC[C@@H](C[C@@H](C)[C@@H]2CC(=O)[C@H](C)/C=C(\C)[C@@H](O)[C@@H](OC)C(=O)[C@H](C)C[C@H](C)/C=C/C=C/C=C(\C)[C@@H](OC)C[C@@H]3CC[C@@H](C)[C@@](O)(O3)C(=O)C(=O)N3CCCC[C@H]3C(=O)O2)C[C@H]1OC` [umirolimus] has an IC50 [1] of 7.97 µM, a Maximum inhibition [1] of 98.49% and an IC50 (SK-HEP-1/liver) of 7.81 µM. The Maximum inhibition (SK-HEP-1/liver) was 99.97%, the IC50 (SK-MES-1/lung) was 8.24 µM and the Maximum inhibition (SK-MES-1/lung) was 96.57%. For the same molecule, the “IC50 compared to sirolimus and everolimus” value [2] was “superior to that of sirolimus and everolimus”, the IC50 (SW620/colorectal) was 8.33 µM and the Maximum inhibition (SW620/colorectal) was 55.69%. For the same molecule, the IC50 (MDA-MB-231/breast) was 9.52 µM, the Maximum inhibition (MDA-MB-231/breast) was 99.23% and the IC50 [3] was 6.8 µM. The Maximum inhibition [3] was 99.26%, the “lipophilicity as compared to sirolimus and everolimus” value [4] was 10 times and the IC50 (SNU-16/gastric) was 1.14 µM. The Maximum inhibition (SNU-16/gastric) was 99.75%, the IC50 (AZ-521/gastric) was 4.23 µM and the Maximum inhibition (AZ-521/gastric) was 99.88%. For the same molecule, the IC50 (A2780/ovarian) was 7.31 µM, the Maximum inhibition (A2780/ovarian) was 100.19% and the IC50 (NCI-H460/lung) was 7.07 µM. The Maximum inhibition (NCI-H460/lung) was 88.99%, the IC50 (BxPC-3/pancreatic) was 3.07 µM and the Maximum inhibition (BxPC-3/pancreatic) was 77.24%. It also gave an IC50 [5] of under 10 µM.
